Reference: PMC12655371

Experiment: derived from PAMPA membrane permeability
Details: n-hexadecane (PAMPA-derived); buffer (PAMPA)

hexadecane/water partition coefficient derived from PAMPA flux (Khex/w)	Structure (SMILES)
34105.6131886465 K (ratio)	CC(C)(C)c1ccc(C(O)CCCN2CCC(C(O)(c3ccccc3)c3ccccc3)CC2)cc1 (stereo not drawn)
1.2 K (ratio)	CN1CCC[C@@H]1Cc1c[nH]c2ccc(CCS(=O)(=O)c3ccccc3)cc12
0.01885 K (ratio)	CC(C)CN(C[C@@H](O)[C@H](Cc1ccccc1)NC(=O)O[C@H]1CCOC1)S(=O)(=O)c1ccc(N)cc1

The next lines start with the compound.

Structure (SMILES)	hexadecane/water partition coefficient derived from PAMPA flux (Khex/w)
c1ccc2c(c1)Sc1ccccc1N2CC1CN2CCC1CC2 (stereo not drawn)	2951 K (ratio)
Clc1ccc2c(c1)CCc1cccnc1C2=C1CCNCC1	99.11 K (ratio)
Cc1c(O)cccc1C(=O)N[C@@H](CSc1ccccc1)[C@H](O)CN1C[C@H]2CCCC[C@H]2C[C@H]1C(=O)NC(C)(C)C	0.398 K (ratio)
